Patent US9732075B2, “Benzimidazole-proline derivatives” (IDORSIA PHARMACEUTICALS LTD, priority 2012, dated 2017)

Assays:
[1] = target: human orexin-1 receptor (Homo sapiens (Human), UniProt O43613); assay: In vitro assay: intracellular calcium measurements (FLIPR), antagonistic activity; format: cell-based; conditions: CHO cells expressing human orexin-1 receptor, orexin-A agonist, geometric mean, read-out: IC50 Ox1
Method in brief: (§1)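 Dye-loaded CHO cells expressing either human orexin receptor are exposed to test antagonist for 120 min, then stimulated with orexin-A at 3 nM.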

[2] = target: human orexin-2 receptor (Homo sapiens (Human), UniProt O43614); assay: as above; format: cell-based; conditions: CHO cells expressing human orexin-2 receptor, orexin-A agonist, geometric mean, read-out: IC50 Ox2
Sequence of human orexin-2 receptor (O43614 whole entry): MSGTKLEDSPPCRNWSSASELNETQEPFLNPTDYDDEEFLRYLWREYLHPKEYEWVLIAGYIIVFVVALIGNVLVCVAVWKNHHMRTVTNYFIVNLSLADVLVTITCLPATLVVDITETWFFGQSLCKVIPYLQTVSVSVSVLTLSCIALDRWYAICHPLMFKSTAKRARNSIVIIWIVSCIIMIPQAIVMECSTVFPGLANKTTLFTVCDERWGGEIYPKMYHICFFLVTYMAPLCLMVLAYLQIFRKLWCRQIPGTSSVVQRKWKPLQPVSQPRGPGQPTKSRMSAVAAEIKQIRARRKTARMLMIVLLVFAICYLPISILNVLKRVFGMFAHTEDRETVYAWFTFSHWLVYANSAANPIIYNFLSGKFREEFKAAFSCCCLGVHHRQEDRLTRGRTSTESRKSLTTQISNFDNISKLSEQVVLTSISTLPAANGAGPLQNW
Method in brief: as §1

Sequence of human orexin-1 receptor (O43613 whole entry): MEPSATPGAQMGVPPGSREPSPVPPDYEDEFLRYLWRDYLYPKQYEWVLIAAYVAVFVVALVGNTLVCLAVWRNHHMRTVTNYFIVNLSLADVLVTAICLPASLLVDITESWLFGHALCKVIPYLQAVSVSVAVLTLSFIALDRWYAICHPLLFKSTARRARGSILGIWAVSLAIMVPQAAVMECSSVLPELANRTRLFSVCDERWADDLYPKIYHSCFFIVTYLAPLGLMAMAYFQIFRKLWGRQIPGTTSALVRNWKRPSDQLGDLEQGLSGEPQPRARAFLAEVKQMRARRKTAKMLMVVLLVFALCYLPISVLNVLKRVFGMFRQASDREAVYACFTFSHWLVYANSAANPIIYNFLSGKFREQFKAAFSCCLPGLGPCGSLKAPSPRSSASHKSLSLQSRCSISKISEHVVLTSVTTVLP

## C=C1C[C@@H](c2nc3ccc(Cl)c(C)c3[nH]2)N(C(=O)c2cc(C)c(C)cc2-n2nccn2)C1 [Ex. 6.130]
[1]
  IC50: 11 nM
[2]
  IC50: 0.6 nM

## C[C@@]1(c2nc3cc(C(F)(F)F)c(Cl)cc3[nH]2)CCCN1C(=O)c1c(F)cccc1-n1nccn1 [Ex. 5.133]
[1]
  IC50: 11 nM
[2]
  IC50: 45 nM

## COc1ccc(-n2nccn2)c(C(=O)N2CCC[C@@]2(C)c2nc3c(F)c(F)ccc3[nH]2)c1F [Ex. 5.203]
[1]
  IC50: 195 nM
[2]
  IC50: 1380 nM

## C[C@@]1(c2nc3cc(C(F)(F)F)ccc3[nH]2)CCCN1C(=O)c1cc(F)ccc1-n1nccn1 [Ex. 5.165]
[1]
  IC50: 65 nM
[2]
  IC50: 355 nM

## C=C1C[C@@H](c2nc3ccc(Cl)c(C)c3[nH]2)N(C(=O)c2nc(C)sc2-c2cccc(C(F)(F)F)c2)C1 [Ex. 6.120]
[1]
  IC50: 8 nM
[2]
  IC50: 0.6 nM

## COc1ccc(-c2cccc(C)c2)c(C(=O)N2CCC[C@@]2(C)c2nc3ccc(Cl)c(C)c3[nH]2)c1F [Ex. 5.301]
[1]
  IC50: 24 nM
[2]
  IC50: 16 nM

## COCCn1c([C@]2(C)CCCN2C(=O)c2cc(C)ccc2-n2nccn2)nc2cc(OC)c(OC)cc21 [Ex. 7.46]
[1]
  IC50: 78 nM
[2]
  IC50: 77 nM

## Cc1cc2[nH]c([C@@H]3[C@@H](C)CCN3C(=O)c3c(-c4ccccn4)ccc(C)c3F)nc2cc1Cl [Ex. 4.113]
[1]
  IC50: 9 nM
[2]
  IC50: 2040 nM

## COc1ccc2[nH]c(C3CCCN3C(=O)c3cc(C)ccc3-n3nccn3)nc2c1 (centres unmarked) [Ex. 1.141]
[1]
  IC50: 507 nM
[2]
  IC50: 13 nM

## C[C@@]1(c2nc3cc(C(F)(F)F)ccc3[nH]2)CCCN1C(=O)c1cc(C(F)(F)F)ccc1-n1nccn1 [Ex. 5.172]
[1]
  IC50: 92 nM
[2]
  IC50: 704 nM

## COc1ccc2nc([C@@H]3CCCN3C(=O)c3cc(C#N)ccc3-n3nccn3)[nH]c2c1 [Ex. 1.159]
[1]
  IC50: 903 nM
[2]
  IC50: 23 nM

## C=C1C[C@@H](c2nc3c(C)cccc3[nH]2)N(C(=O)c2nc(C)sc2-c2ccccc2)C1 [Ex. 6.40]
[1]
  IC50: 70 nM
[2]
  IC50: 9 nM

## COc1cccc2[nH]c([C@@H]3[C@@H](C)CCN3C(=O)c3cc(C)ccc3-n3nccn3)nc12 [Ex. 4.31]
[1]
  IC50: 77 nM
[2]
  IC50: 774 nM

## COc1ccc(-n2nccn2)c(C(=O)N2CCC[C@@]2(C)c2nc3cc(F)c(Br)cc3[nH]2)c1F [Ex. 5.132]
[1]
  IC50: 54 nM
[2]
  IC50: 615 nM

## C=C1C[C@@H](c2nc3cc(OC)ccc3[nH]2)N(C(=O)c2ccccc2-c2nc(C)no2)C1 [Ex. 6.20]
[1]
  IC50: 1750 nM
[2]
  IC50: 49 nM

## Cc1ccc(-c2ccccc2F)c(C(=O)N2CCC[C@@]2(C)c2nc3cc(C(F)(F)F)ccc3[nH]2)c1 [Ex. 5.194]
[1]
  IC50: 13 nM
[2]
  IC50: 98 nM

## Cc1nc(C(=O)N2CCC[C@H]2c2nc3c(C)cc(Br)cc3[nH]2)c(-c2ccccc2)s1 [Ex. 1.144]
[1]
  IC50: 33 nM
[2]
  IC50: 27 nM

## C=C1C[C@@H](c2nc3ccc(OC)cc3[nH]2)N(C(=O)c2cc(C)ccc2-n2cccn2)C1 [Ex. 6.137]
[1]
  IC50: 4950 nM
[2]
  IC50: 23 nM

## C=C1CN(C(=O)c2ccccc2-n2nccn2)C(C)(c2nc3cc(OC)ccc3[nH]2)C1 (centres unmarked) [Ex. 6.155]
[1]
  IC50: 649 nM
[2]
  IC50: 105 nM

## Cc1nc(C(=O)N2CCCC2c2nc3c(C)c(C)ccc3[nH]2)c(-c2cccc(Cl)c2)s1 (centres unmarked) [Ex. 1.115]
[1]
  IC50: 37 nM
[2]
  IC50: 19 nM

## Cc1ccc(-c2nc(C(=O)N3CCC[C@@]3(C)c3nc4c(C)c(Cl)ccc4[nH]3)c(-c3ccc(F)cc3)s2)c(F)c1 [Ex. 5.253]
[1]
  IC50: 12 nM
[2]
  IC50: 1190 nM

## C=C1C[C@@H](c2nc3cc(OC)ccc3[nH]2)N(C(=O)c2nc(C)sc2-c2cc(F)cc(F)c2)C1 [Ex. 6.37]
[1]
  IC50: 422 nM
[2]
  IC50: 45 nM

## COc1ccc(-c2sc(C)nc2C(=O)N2CC[C@H](C)[C@H]2c2nc3c(C(F)(F)F)cccc3[nH]2)cc1 [Ex. 4.159]
[1]
  IC50: 4 nM
[2]
  IC50: 215 nM

## COc1ccc(-c2ccc(C)cc2C(=O)N2CCC[C@@]2(C)c2nc3c(C)c(C)ccc3[nH]2)cc1 [Ex. 5.112]
[1]
  IC50: 12 nM
[2]
  IC50: 16 nM

## COc1ccc(-c2sc(C)nc2C(=O)N2C[C@H](OC)C[C@H]2c2nc3ccc(Cl)c(C)c3[nH]2)cc1 [Ex. 3.37]
[1]
  IC50: 8 nM
[2]
  IC50: 8 nM

## CSc1ccc2nc([C@@H]3CCCN3C(=O)c3ccc(C)cc3-n3nccn3)[nH]c2c1 [Ex. 1.153]
[1]
  IC50: 40 nM
[2]
  IC50: 3 nM

## Cc1nc(C(=O)N2CCC[C@@]2(C)c2nc3c(C)c(Cl)ccc3[nH]2)c(-c2cccc(Cl)c2)s1 [Ex. 5.5]
[1]
  IC50: 3 nM
[2]
  IC50: 5 nM

## COc1cc2nc(C3CCCN3C(=O)c3nc(C)sc3-c3ccccc3)[nH]c2cc1OC (centres unmarked) [Ex. 1.134]
[1]
  IC50: 116 nM
[2]
  IC50: 26 nM

## COc1ccc(-n2nccn2)c(C(=O)N2CCC[C@@]2(C)c2nc3cc(C(F)(F)F)ccc3[nH]2)c1F [Ex. 5.168]
[1]
  IC50: 64 nM
[2]
  IC50: 570 nM

## Cc1c(Cl)ccc2[nH]c([C@]3(C)CCCN3C(=O)c3nc(-c4ccc(F)cc4)sc3-c3ccc(F)cc3)nc12 [Ex. 5.227]
[1]
  IC50: 20 nM
[2]
  IC50: 521 nM

## C[C@@]1(c2nc3c(F)c(F)ccc3[nH]2)CCCN1C(=O)c1cc(F)ccc1-n1nccn1 [Ex. 5.204]
[1]
  IC50: 360 nM
[2]
  IC50: 900 nM

## COc1ccccc1-c1ccc(C)cc1C(=O)N1CCC[C@@]1(C)c1nc2cc(C)c(C)cc2[nH]1 [Ex. 5.92]
[1]
  IC50: 62 nM
[2]
  IC50: 177 nM

## C=C1CN(C(=O)c2nc(C)sc2-c2ccc(Cl)cc2)C(C)(c2nc3cc(OC)ccc3[nH]2)C1 (racemic) [Ex. 6.146]
[1]
  IC50: 16 nM
[2]
  IC50: 33 nM

## Cc1ccc(-n2nccn2)c(C(=O)N2CCC[C@@]2(C)c2nc3c(F)c(F)ccc3[nH]2)n1 [Ex. 5.205]
[1]
  IC50: 149 nM
[2]
  IC50: 852 nM

## C=C1C[C@@H](c2nc3cccc(C)c3[nH]2)N(C(=O)c2nc(C)sc2-c2cccc(Br)c2)C1 [Ex. 6.104]
[1]
  IC50: 13 nM
[2]
  IC50: 0.8 nM

## C=C1C[C@@H](c2nc3ccc(Cl)c(C)c3[nH]2)N(C(=O)c2nc(C)sc2-c2ccc(Cl)cc2)C1 [Ex. 6.119]
[1]
  IC50: 14 nM
[2]
  IC50: 3 nM

## Cc1ccc(-n2nccn2)c(C(=O)N2CC[C@H](C)[C@H]2c2nc3cc(Cl)c(C)cc3[nH]2)c1 [Ex. 4.32]
[1]
  IC50: 7 nM
[2]
  IC50: 156 nM

## C=C1C[C@@H](c2nc3c(C)c(Cl)ccc3[nH]2)N(C(=O)c2nc(C)sc2-c2ccc(C)c(C)c2)C1 [Ex. 6.54]
[1]
  IC50: 3 nM
[2]
  IC50: 1 nM

## C=C1C[C@@H](c2nc3cc(Cl)c(C(F)(F)F)cc3[nH]2)N(C(=O)c2nc(C)ccc2-n2cccn2)C1 [Ex. 6.189]
[1]
  IC50: 47 nM
[2]
  IC50: 25 nM

## C[C@@]1(c2nc3cc(F)c(Br)cc3[nH]2)CCCN1C(=O)c1c(F)cccc1-n1nccn1 [Ex. 5.123]
[1]
  IC50: 146 nM
[2]
  IC50: 304 nM

## CO[C@H]1CN(C(=O)c2cc(C)ccc2-n2nccn2)C(C)(c2nc3c(C)cccc3[nH]2)C1 (some centres unmarked) [Ex. 3.26]
[1]
  IC50: 50 nM
[2]
  IC50: 66 nM

## COc1ccc(-n2nccn2)c(C(=O)N2CC[C@H](C)[C@H]2c2nc3cc(C)c(C)cc3[nH]2)c1 [Ex. 4.84]
[1]
  IC50: 8 nM
[2]
  IC50: 58 nM

## Cc1c(Cl)ccc2[nH]c([C@]3(C)CCCN3C(=O)c3ccccc3-n3nccn3)nc12 [Ex. 5.46]
[1]
  IC50: 6 nM
[2]
  IC50: 14 nM

## Cc1nc(C(=O)N2CC[C@H](C)[C@H]2c2nc3c(CO)cccc3[nH]2)c(-c2cccc(Cl)c2)s1 [Ex. 4.17]
[1]
  IC50: 14 nM
[2]
  IC50: 1670 nM

## Cc1ccc(-c2ccc(C)cc2C(=O)N2CCC[C@@]2(C)c2nc3cc(C)c(C)cc3n2C)cc1 [Ex. 7.37]
[1]
  IC50: 11 nM
[2]
  IC50: 20 nM

## Cc1nc(C(=O)N2CCCC2c2nc3cc(F)c(Br)cc3[nH]2)c(-c2ccccc2)s1 (centres unmarked) [Ex. 1.136]
[1]
  IC50: 81 nM
[2]
  IC50: 278 nM

## COc1ccc(-c2ccc(C)cc2C(=O)N2CCC[C@@]2(C)c2nc3cc(C(F)(F)F)c(Cl)cc3[nH]2)cc1 [Ex. 5.150]
[1]
  IC50: 37 nM
[2]
  IC50: 49 nM

## COc1cc2nc([C@]3(C)CCCN3C(=O)c3cc(C(F)(F)F)ccc3-n3nccn3)[nH]c2cc1OC [Ex. 5.71]
[1]
  IC50: 56 nM
[2]
  IC50: 22 nM

## Cc1ccc(-c2ccccc2F)c(C(=O)N2CCC[C@@]2(C)c2nc3c(C)c(C)ccc3[nH]2)c1 [Ex. 5.114]
[1]
  IC50: 10 nM
[2]
  IC50: 21 nM

## C=C1C[C@@H](c2nc3cc(C(C)(C)C)ccc3[nH]2)N(C(=O)c2nc(C)ccc2-n2cccn2)C1 [Ex. 6.173]
[1]
  IC50: 842 nM
[2]
  IC50: 64 nM

## Cc1ccc(-n2nccn2)c(C(=O)N2CCC[C@@]2(C)c2nc3c(C(F)(F)F)cccc3[nH]2)c1 [Ex. 5.17]
[1]
  IC50: 11 nM
[2]
  IC50: 76 nM

## C=C1C[C@@H](c2nc3cc(OC)ccc3[nH]2)N(C(=O)c2cnc(C)nc2-c2cccc(C)c2)C1 [Ex. 6.11]
[1]
  IC50: 135 nM
[2]
  IC50: 56 nM

## Cc1nc(C(=O)N2CC[C@H](C)[C@H]2c2nc3c(C)cc(Cl)cc3[nH]2)c(-c2ccc(F)cc2)s1 [Ex. 4.100]
[1]
  IC50: 6 nM
[2]
  IC50: 1280 nM

## COc1cc2nc([C@]3(C)CCCN3C(=O)c3ncsc3-c3cccc(Cl)c3)[nH]c2cc1OC [Ex. 5.80]
[1]
  IC50: 548 nM
[2]
  IC50: 360 nM

## Cc1ccc(-n2cccn2)c(C(=O)N2CC[C@H](C)[C@H]2c2nc3c(C)cc(Cl)cc3[nH]2)c1 [Ex. 4.95]
[1]
  IC50: 28 nM
[2]
  IC50: 1170 nM

## Cc1cc2[nH]c([C@@H]3[C@@H](C)CCN3C(=O)c3cc(F)ccc3-c3ccccn3)nc2cc1Cl [Ex. 4.106]
[1]
  IC50: 23 nM
[2]
  IC50: 529 nM

## Cc1ccc(-n2nccn2)c(C(=O)N2CC[C@H](C)[C@H]2c2nc3cccc(C)c3[nH]2)c1 [Example 4.1, (5-methyl-2-(2H-1,2,3-triazol-2-yl)phenyl)((2S,3S)-3-methyl-2-(7-methyl-1H-benzo[d]imidazol-2-yl)pyrrolidin-1-yl)methanone]
[1]
  IC50: 29 nM
[2]
  IC50: 778 nM

## C=C1C[C@@H](c2nc3cc(OC)ccc3[nH]2)N(C(=O)c2nccnc2-c2cccc(C)c2)C1 [Ex. 6.6]
[1]
  IC50: 477 nM
[2]
  IC50: 52 nM
